# Like-named read-outs stand apart in the source and are kept apart here.
# Target: T1, GST-Bcl-B (Homo sapiens, UniProt Q9HD36)
# T1 sequence (Q9HD36 1-182 limits assumed): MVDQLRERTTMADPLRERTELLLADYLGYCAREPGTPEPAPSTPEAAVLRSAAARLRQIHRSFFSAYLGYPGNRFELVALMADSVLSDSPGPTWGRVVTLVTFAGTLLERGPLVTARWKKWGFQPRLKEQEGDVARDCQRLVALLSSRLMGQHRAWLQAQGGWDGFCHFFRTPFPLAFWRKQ
# Experiment: Bcl-B/FITC-TR3-r8 fluorescence polarization competition (displacement) assay, HTS and dose-response
# [1] = Table 8, NCI Structural library, Binding Assay, FP, Concentration 0.02 uM
# [2] = read-out: Result Value (Result Type % Inhibition), BCL-b/TR3
# [3] = read-out: Result Value (Result Type % Inhibition), BCL-b/TR3, Table 8, NCI Structural library, Binding Assay, FP, Concentration 0.02 uM
# [4] = Table 7, NCI Mechanistic library, Binding Assay, FP, Concentration 0.02 uM
# [5] = read-out: Result Value (Result Type % Inhibition), BCL-b/TR3, Table 7, NCI Mechanistic library, Binding Assay, FP, Concentration 0.02 uM
SMILES,F Ratio [1],Is Hit [1],inhibition at 0.02 µM [2] [%],inhibition at 0.02 µM [3] [%],F Ratio [4],Is Hit [4],inhibition at 0.02 µM [5] [%],"Result Value (Result Type % Inhibition), BCL-b/TR3 [4] [%]"
N=C1C(O)C2(I)c3ccccc3N3C(=N)C(O)C4c5ccccc5N1C4C32 (stereo not shown) [Compound 118176],0.5128,Yes,62.3,,,,,
O=C(O)C1CCCCC1c1c2ccc(=O)c(O)c-2oc2c(O)c(O)ccc12 (stereo not shown) [Compound 119910],0.1582,Yes,119,,,,,
O=C(O)/C=C/c1c2ccc(=O)c(O)c-2oc2c(O)c(O)ccc12 [Compound 119911],0.07992,Yes,123,,,,,
CC1C2C=CC1C(c1c3ccc(=O)c(O)c-3oc3c(O)c(O)ccc13)C2C(=O)O (stereo not shown) [Compound 119913],0.0972,Yes,131,,,,,
O=C(O)CCc1c2ccc(=O)c(O)c-2oc2c(O)c(O)ccc12 [Compound 119915],0.5317,Yes,158,,,,,
O=C(O)c1cccc(/N=N/c2c(S(=O)(=O)O)ccc3c2C(=O)c2ccccc2C3=O)c1O [Compound 125908],0.2215,Yes,124,,,,,
Nc1ccc(-c2ccc(Nc3cc(S(=O)(=O)O)c(N)c4c3C(=O)c3ccccc3C4=O)cc2)c(S(=O)(=O)O)c1 [Compound 125910],0.2439,Yes,123,,,,,
O=[N+]([O-])c1cc(Cc2cc([N+](=O)[O-])c3cccnc3c2O)c(O)c2ncccc12 [Compound 130798],0.1969,Yes,,115,,,,
CN1CC=C(Nc2ccc(C(=O)Nc3ccc(Nc4ccncc4)cc3)c([N+](=O)[O-])c2)c2cc([N+](=O)[O-])ccc21 [Compound 218439],,,,,0.07485,Yes,106,
c1ccc2c(NCCCCCCCCNc3c4ccccc4nc4ccccc34)c3ccccc3nc2c1 [Compound 219734],,,,,0.2008,Yes,,53.437
NC(=O)OCC1=C(COC(N)=O)C(=O)c2c(O)ccc(O)c2C1=O [Compound 224124],,,145,,1.1456,Yes,,
CC[n+]1c(-c2ccccc2)c2cc(N)ccc2c2ccc(N)cc21 [Compound 268986],,,,,0.3849,Yes,149,
CN(C)CCN1C(=O)c2cccc3cc(N)cc(c23)C1=O [Compound 308847],,,,,0.6345,Yes,87.6,
CC(=O)O.CCN(CC)CC[n+]1ccc2c(C)c3[nH]c4ccc(O)cc4c3c(C)c2c1 [Compound 311152],0.7711,Yes,128,,,,,
CC(=O)O.Cc1c2cc[n+](CCN3CCCCC3)cc2c(C)c2c1[nH]c1ccc(O)cc12 [Compound 311153],0.3973,Yes,,128,0.275,Yes,120,
Nc1ccc2c(c1)CN1C(=O)c3ccccc3C1=N2 [Compound 320846],,,,,1.4904,Yes,60.7,
CN1CCN(c2ccc3nc(-c4ccc5[nH]c(-c6ccc(O)cc6)nc5c4)[nH]c3c2)CC1 [Compound 322921],,,,71.6,,,,
O=C1C(Cl)=C(Sc2nnc3c4ccccc4c4ccccc4c3n2)C(=O)c2ccccc21 [Compound 327705],0.2306,Yes,,56.3,,,,

# Now from value to molecule, other results behind:
F Ratio [1],Is Hit [1],inhibition at 0.02 µM [2] [%],SMILES,inhibition at 0.02 µM [3] [%],F Ratio [4],Is Hit [4],inhibition at 0.02 µM [5] [%],"Result Value (Result Type % Inhibition), BCL-b/TR3 [4] [%]"
0.9929,Yes,166,CNc1ccc(Nc2ccc(S(=O)(=O)O)cc2)c2c1C(=O)c1ccccc1C2=O [Compound 128437],,,,,
0.205,Yes,55.3,O=C(O)c1cnc2c(ccc3ncc(C(=O)O)c(O)c32)c1O [Compound 128884],,,,,
0.07696,Yes,133,COc1ccc2nc3cc(Cl)ccc3c(Nc3ccc(O)c(CN4CCN(C)CC4)c3)c2c1.Cl [Compound 130813],,,,,
0.1606,Yes,84.6,Oc1cc(O)c2c(c1)OC(c1ccc(O)c(O)c1)C(O)C2c1c(O)cc(O)c2c1OC(c1ccc(O)c(O)c1)C(O)C2 (stereo not shown) [Compound 143099],,,,,
0.1869,Yes,82.8,Oc1cc(O)c2c(c1)OC(c1ccc(O)c(O)c1)C(OC1(c3cc(O)c(O)c(O)c3)Oc3cc(O)cc(O)c3C(O)C1O)C2 (stereo not shown) [Compound 143101],,,,,
0.9609,Yes,54,COC1/C2=C(\O)C3(C)Oc4c5c(O)c6c(O)c(c(CN(C)C)c(O)c6c4C3=O)NC(=O)/C(C)=C\C=C/CC(O)C(C)C(O5)C(C)C(OC2=O)C1C (stereo not shown) [Compound 145612],,,,,
0.07045,Yes,102,O=S(=O)(O)c1cc(/N=N/c2cccc3ccccc23)c(O)c2ncccc12 [Compound 148354],,,,,
0.1208,Yes,58.6,CS(=O)(=O)Nc1ccc(Nc2c3ccccc3nc3ccccc23)cc1 [Compound 156305],,,,,
0.1552,Yes,123,CCc1c(O)c2c(c(O)c1C(C)=O)C(=O)c1c(cc(O)c(C(=O)O)c1C(=O)O)C2=O [Compound 170005],,,,,
,,51.9,N=C(N)NCCCS(=O)(=O)Nc1ccc(Nc2c3ccccc3nc3cc([N+](=O)[O-])ccc23)cc1 [Compound 177365],,0.439,Yes,,
1.1364,Yes,73.4,O=[N+]([O-])c1ccc(S(=O)(=O)Cc2ccccc2)c2nonc12 [Compound 228148],,,,,
0.5232,Yes,138,COc1cccc2c1C(=N)c1c(O)c3c(c(O)c1C2=O)C[C@@](O)(C(C)=O)C[C@@H]3OC1CC(N)C(O)C(C)O1 (stereo partly shown) [Compound 254681],,,,,
,,53.3,COc1ccc2c(NCCCCCCNc3c4ccccc4nc4cc(OC)ccc34)c3ccccc3nc2c1 [Compound 260610],,0.269,Yes,,
0.08966,Yes,154,Cc1nn(-c2ccc(S(=O)(=O)O)cc2)c(O)c1/N=N/c1ccc(-c2ccc(/N=N/c3ccc4c(S(=O)(=O)O)cc(S(=O)(=O)O)c(N)c4c3O)c(O)c2)cc1O [Compound 306711],,,,,
0.1416,Yes,110,CN(C)CCCNc1cc(O)c2c(c1O)C(=O)c1ccccc1C2=O [Compound 339585],,,,,
1.4788,Yes,68.6,Nc1nc(Sc2ccc([N+](=O)[O-])c3nonc23)c2nc[nH]c2n1 [Compound 348401],,,,,
1.1279,Yes,150,CCOc1ccc2nc3cc(/N=N/c4ccc(N)nc4N)ccc3c(N)c2c1.Cl [Compound 354961],,,,,
0.06989,Yes,120,N=C(N)c1ccc(/N=N/c2c(O)ccc3c2[nH]c2ccccc23)cc1 [Compound 357777],,,,,
,,94.9,CCN(CC)Cc1cc(/N=N/c2c(O)ccc3c(/N=N/c4ccc(O)c(CN(CC)CC)c4)c(O)ccc23)ccc1O [Compound 359463],,0.08773,Yes,,
,,115,O=C1c2cccc(NCCCNCCO)c2C(=O)c2cccc(NCCCNCCO)c21 [Compound 363998],,0.2213,Yes,,
0.6261,Yes,61.8,Ic1ccc2c(c1)N(c1ccccc1)c1cc(Nc3ccc4nc5ccc(I)cc5[n+](-c5ccccc5)c4c3)ccc1N2 [Compound 402959],,,,,

# Reference: patent publication US20090118135A1, “METHODS AND COMPOUNDS FOR REGULATING APOPTOSIS” (The Burnham Institute, priority 2007, published 2009)
